Measured values published in patent US20080292627A1, “Compositions and Methods for Treating Mood and Anxiety Disorders” (THE BOARD OF TRUSTEES OF THE UNIVERSITY OF ILLINOIS, priority 2005, published 2008).
pKd: −log10 of the molar value.

Legend:
[1] = tested on: tubulin; assay: SPOT membrane peptide array, tubulin binding to immobilized Gsα-derived peptides; parameters: species or system Ovine; settings: equimolar Gsα (150 nM), 37° C., 1 hour; SPOT membrane 1
Text: Peptides were synthesized on to a cellulose membrane with PEG spacer (8×12 cm^2) (AIMS Scientific Products, Braunschweig, Germany) via the C-terminal amino acid in sequential spots by the use of a SPOT synthesis kit (SIGMA genosys, St. Louis, Mo.) (Frank, J. Immunol. Methods 267: 13-26, 2002; Frank, Tetrahedron 48: 9217-9232, 1992). The peptides corresponded to the amino acid sequence of Gsα (Genbank accession number P04895, homo sapiens, Gsα long form; SEQ ID NO: 15), which was divided into overlapping peptides (12 amino acids in length with 7 amino acid overlap between sequential peptide, 73 total spots). Spot 1 corresponded to amino acids 1-12 and Spot 2 corresponded to residues 6-17 in the primary amino acid sequence (SEQ ID NO: 15), etc. […]
Ovine brain tubulin was prepared as previously described (Shelanski et al., Proc. Natl. Acad. Sci. USA. 70: 765-768, 1973). […] Purity of the prepared tubulin, as determined by SDS gel electrophoresis, was always greater than 95%. […] Protein concentrations were determined by Coomasie Blue binding (BioRad Protein Assay) with Bovine Serum Albumin as a standard (Bradford, Anal. Biochem. 72: 248-254, 1976). […]

[2] = tested on: tubulin; settings: cited from earlier work

Gsα: stimulatory G protein α subunit of adenylyl cyclase
effect of prior incubation of tubulin with Gsα on tubulin binding to the immobilized peptides [1]: prevented tubulin from binding | binding to tubulin (in words) [2]: bind with a high affinity | pKd ([2]; read-out: KD of tubulin binding): ~6.89
